# Literature values, collected in patent US10219515B2, “Agrochemical adjuvant containing 2-oxo-1,3-dioxolan-4 carboxylates” (BASF SE, priority 2014, dated 2019).
# Where two headings read alike, the source gives them in different places.
structure (smiles),measurement,setting,value
O=C(O)CNCP(=O)(O)O [glyphosate],acid dissociation constant pKa,amine,~11.0
same,acid dissociation constant pKa,carboxylic acid,~2.3
same,acid dissociation constant pKa,first phosphonic acid,~0.8
same,acid dissociation constant pKa,second phosphonic acid,~6.0
